# Numbers after ± are expanded uncertainties.
# Assays:
# [1] = Liquid; for mass density: 298.15 K, 101.33 kPa; for vapor or sublimation pressure: Ebulliometric method (Recirculating still)
# [2] = refractive index (Na D-line) (dimensionless); settings: 298.15 K; 101.33 kPa; Liquid; Standard Abbe refractometry
Compound,mass density [1] [kg/m3],vapor or sublimation pressure ([1]; 330 K) [kPa],vapor or sublimation pressure ([1]; 340 K) [kPa],refractive index [2]
"CC(C)CC(C)(C)C [2,2,4-trimethylpentane]",687.79 ± 0.41,25.47 ± 0.14,36.64 ± 0.19,1.38894 ± 0.00072
CC(=O)C(C)C [3-methyl-2-butanone],799.55 ± 0.45,27.69 ± 0.16,40.45 ± 0.2,1.3862 ± 0.00072
CC(C)O [propan-2-ol],780.91 ± 0.31,33.25 ± 0.19,52.97 ± 0.26,1.37504 ± 0.00072
